# Data reported in patent US20260262643A1, “HERBICIDAL BENZOXAZINES” (FMC CORPORATION, priority 2022, published 2026).
# Key:
# ryegrass, Italian [1] = test: Test C postemergence; format: in vivo, Lolium multiflorum; conditions: 10 days, 0 to 100 scale (0 no effect, 100 complete control)
# Outline: (§1)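 Seeds sown in loam soil–sand blend received a directed preemergence soil spray of test chemical in non-phytotoxic solvent with surfactant; postemergence plants (2–10 cm, one- to two-leaf stage) were sprayed with the same formulation. Greenhouse-held 10 days, then visually rated for injury versus untreated controls, 0 (no effect) to 100 (complete control).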
# ryegrass, Italian [2] = test: Test C preemergence; format: in vivo, Lolium multiflorum
# Outline: as §1
# wheat [3] = test: Test C preemergence; format: in vivo, Triticum aestivum
# Outline: as §1
# kochia [4] = test: Test C preemergence; format: in vivo, Bassia scoparia
# Outline: as §1
# foxtail, giant [5] = test: Test C postemergence; format: in vivo, Setaria faberi; conditions: 10 days, 0 to 100 scale (0 no effect, 100 complete control)
# Outline: as §1
# kochia [6] = test: Test C postemergence; format: in vivo, Bassia scoparia; conditions: 10 days, 0 to 100 scale (0 no effect, 100 complete control)
# Outline: as §1
# sedge, umbrella = test: Test D flooded paddy test; format: in vivo, Cyperus difformis; conditions: 250 g ai/ha, applied to paddy water, visual rating after 13 to 14 days, scale 0 to 100 (0 no effect, 100 complete control)
# Outline: (§2)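 Post-flood water application at the 2-leaf stage; 3 cm flood depth kept constant; visual control rating 0–100 after 13–14 days greenhouse growth.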
# rice = test: Test D flooded paddy test; format: in vivo, Oryza sativa; conditions: 250 g ai/ha, applied to paddy water, visual rating after 13 to 14 days, scale 0 to 100 (0 no effect, 100 complete control)
# Outline: as §2
# soybean [7] = test: Test C postemergence; format: in vivo, Glycine max; conditions: 10 days, 0 to 100 scale (0 no effect, 100 complete control)
# Outline: as §1
# pigweed, palmer [8] = test: Test C postemergence; format: in vivo, Amaranthus palmeri; conditions: 10 days, 0 to 100 scale (0 no effect, 100 complete control)
# Outline: as §1
# ragweed [9] = test: Test C preemergence; format: in vivo, Ambrosia artemisiifolia
# Outline: as §1
# soybean [10] = test: Test C preemergence; format: in vivo, Glycine max
# Outline: as §1
# pigweed, palmer [11] = test: Test C preemergence; format: in vivo, Amaranthus palmeri
# Outline: as §1
# barnyardgrass [12] = test: Test C postemergence; format: in vivo, Echinochloa crusgalli; conditions: 10 days, 0 to 100 scale (0 no effect, 100 complete control)
# Outline: as §1
# oat, wild [13] = test: Test C postemergence; format: in vivo, Avena fatua; conditions: 10 days, 0 to 100 scale (0 no effect, 100 complete control)
# Outline: as §1
# galium = test: Test C postemergence; format: in vivo, Galium aparine; conditions: 10 days, 0 to 100 scale (0 no effect, 100 complete control)
# Outline: as §1
# wheat [14] = test: Test C postemergence; format: in vivo, Triticum aestivum; conditions: 10 days, 0 to 100 scale (0 no effect, 100 complete control)
# Outline: as §1
# corn [15] = test: Test C preemergence; format: in vivo, Zea mays
# Outline: as §1
# ducksalad = test: Test D flooded paddy test; format: in vivo, Heteranthera limosa; conditions: 250 g ai/ha, applied to paddy water, visual rating after 13 to 14 days, scale 0 to 100 (0 no effect, 100 complete control)
# Outline: as §2
# horseweed = test: Test C postemergence; format: in vivo, Erigeron canadensis; conditions: 10 days, 0 to 100 scale (0 no effect, 100 complete control)
# Outline: as §1
# corn [16] = test: Test C postemergence; format: in vivo, Zea mays; conditions: 10 days, 0 to 100 scale (0 no effect, 100 complete control)
# Outline: as §1
# foxtail, giant [17] = test: Test C preemergence; format: in vivo, Setaria faberi
# Outline: as §1
# ragweed [18] = test: Test C postemergence; format: in vivo, Ambrosia artemisiifolia; conditions: 10 days, 0 to 100 scale (0 no effect, 100 complete control)
# Outline: as §1
# barnyardgrass [19] = test: Test D flooded paddy test; format: in vivo, Echinochloa crus-galli; conditions: 250 g ai/ha, applied to paddy water, visual rating after 13 to 14 days, scale 0 to 100 (0 no effect, 100 complete control)
# Outline: as §2
# blackgrass [20] = test: Test C postemergence; format: in vivo, Alopecurus myosuroides; conditions: 10 days, 0 to 100 scale (0 no effect, 100 complete control)
# Outline: as §1
# barnyardgrass [21] = test: Test C preemergence; format: in vivo, Echinochloa crusgalli
# Outline: as §1
# oat, wild [22] = test: Test C preemergence; format: in vivo, Avena fatua
# Outline: as §1
# blackgrass [23] = test: Test C preemergence; format: in vivo, Alopecurus myosuroides
# Outline: as §1
# [24] = 500 g ai/ha, preemergence, 0 to 100 scale (0 no effect, 100 complete control)
# [25] = Preemergence, 125 g ai/ha, 0 to 100 scale, 0 no effect, 100 complete control
smiles,measurement,setting,value
CCc1ncn(-c2cc(C(=O)N3CC(C(F)(F)F)Oc4c(Cl)cccc43)ccn2)n1 (racemic) [Compound 334],"Plant response rating, Ryegrass, Italian","ryegrass, Italian [1]; 500 g ai/ha, postemergence",70
same,"Plant response rating, Ryegrass, Italian","ryegrass, Italian [1]; Postemergence, 125 g ai/ha",50
same,"Ryegrass, Italian plant response rating","ryegrass, Italian [2]; [24]",90
same,"Plant response rating, Ryegrass, Italian","ryegrass, Italian [2]; [25]",70
same,Wheat plant response rating,wheat [3]; [24],20
same,"Plant response rating, Wheat",wheat [3]; [25],0
same,Kochia plant response rating,kochia [4]; [24],80
same,"Plant response rating, Kochia",kochia [4]; [25],40
same,"Plant response rating, Foxtail, Giant","foxtail, giant [5]; 500 g ai/ha, postemergence",90
same,"Plant response rating, Foxtail, Giant","foxtail, giant [5]; Postemergence, 125 g ai/ha",70
same,"Plant response rating, Kochia","kochia [6]; 500 g ai/ha, postemergence",80
same,"Plant response rating, Kochia","kochia [6]; Postemergence, 125 g ai/ha",80
same,"Plant response rating, Sedge, Umbrella (Flood)","sedge, umbrella",70
same,"Plant response rating, Rice (Flood)",rice,0
same,"Plant response rating, Soybean","soybean [7]; 500 g ai/ha, postemergence",100
same,"Plant response rating, Soybean","soybean [7]; Postemergence, 125 g ai/ha",100
same,"Plant response rating, Pigweed, Palmer","pigweed, palmer [8]; 500 g ai/ha, postemergence",50
same,"Plant response rating, Pigweed, Palmer","pigweed, palmer [8]; Postemergence, 125 g ai/ha",30
same,Ragweed plant response rating,ragweed [9]; [24],30
same,"Plant response rating, Ragweed",ragweed [9]; [25],0
same,Soybean plant response rating,soybean [10]; [24],60
same,"Plant response rating, Soybean",soybean [10]; [25],0
same,"Pigweed, Palmer plant response rating","pigweed, palmer [11]; [24]",100
same,"Plant response rating, Pigweed, Palmer","pigweed, palmer [11]; [25]",90
same,"Plant response rating, Barnyardgrass","barnyardgrass [12]; 500 g ai/ha, postemergence",90
same,"Plant response rating, Barnyardgrass","barnyardgrass [12]; Postemergence, 125 g ai/ha",20
same,"Plant response rating, Oat, Wild","oat, wild [13]; 500 g ai/ha, postemergence",40
same,"Plant response rating, Oat, Wild","oat, wild [13]; Postemergence, 125 g ai/ha",10
same,"Plant response rating, Galium","galium; 500 g ai/ha, postemergence",100
same,"Plant response rating, Galium","galium; Postemergence, 125 g ai/ha",100
same,"Plant response rating, Wheat","wheat [14]; 500 g ai/ha, postemergence",50
same,"Plant response rating, Wheat","wheat [14]; Postemergence, 125 g ai/ha",20
same,Corn plant response rating,corn [15]; [24],50
same,"Plant response rating, Corn",corn [15]; [25],0
same,"Plant response rating, Ducksalad (Flood)",ducksalad,30
same,"Plant response rating, Horseweed","horseweed; 500 g ai/ha, postemergence",40
same,"Plant response rating, Horseweed","horseweed; Postemergence, 125 g ai/ha",0
same,"Plant response rating, Corn","corn [16]; 500 g ai/ha, postemergence",90
same,"Plant response rating, Corn","corn [16]; Postemergence, 125 g ai/ha",40
same,"Foxtail, Giant plant response rating","foxtail, giant [17]; [24]",100
same,"Plant response rating, Foxtail, Giant","foxtail, giant [17]; [25]",90
same,"Plant response rating, Ragweed","ragweed [18]; 500 g ai/ha, postemergence",60
same,"Plant response rating, Ragweed","ragweed [18]; Postemergence, 125 g ai/ha",0
same,"Plant response rating, Barnyardgrass (Flood)",barnyardgrass [19],10
same,"Plant response rating, Blackgrass","blackgrass [20]; 500 g ai/ha, postemergence",80
same,"Plant response rating, Blackgrass","blackgrass [20]; Postemergence, 125 g ai/ha",40
same,Barnyardgrass plant response rating,barnyardgrass [21]; [24],100
same,"Plant response rating, Barnyardgrass",barnyardgrass [21]; [25],60
same,"Oat, Wild plant response rating","oat, wild [22]; [24]",30
same,"Plant response rating, Oat, Wild","oat, wild [22]; [25]",0
same,Blackgrass plant response rating,blackgrass [23]; [24],90
same,"Plant response rating, Blackgrass",blackgrass [23]; [25],80
